The source of these data is patent US11401278B2, “Macrocyclic indole derivatives” (The Broad Institute, Inc., priority 2017, dated 2022).

The structures appear in SMILES notation. Structures can show the parent of a compound that is named as a salt. Some results are limits rather than exact numbers.

BCL-XL, sequence (Q07817 other isoform, or with tags, fused parts or gaps): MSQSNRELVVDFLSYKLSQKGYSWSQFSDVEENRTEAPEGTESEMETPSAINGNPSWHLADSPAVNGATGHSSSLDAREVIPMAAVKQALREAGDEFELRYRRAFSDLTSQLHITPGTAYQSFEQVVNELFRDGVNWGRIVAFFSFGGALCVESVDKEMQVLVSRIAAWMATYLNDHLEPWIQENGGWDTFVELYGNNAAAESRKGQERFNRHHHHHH

This assay addresses BCL-XL (Homo sapiens (Human), UniProt Q07817). The assay can be described thus: Protein-protein interaction assay BCL-XL/Bad BH3 peptide (BCL-XL assay, TR-FRET). In kind it is binding. Particulars: His-BCL-XL / Bad BH3 peptide, median. The method, then: Assay 2 Protein-Protein Interaction Assay: BCL-XL/Bad BH3 Peptide (BCL-XL Assay)
The dose-dependent inhibition by the compounds described in this invention of the interaction between BCL-XL and the BH3 domain of Bad (both human) was determined using a steady state binding competition assay with time-resolved fluorescence energy transfer (TR-FRET) readout. For that purpose BCL-XL (amino acids 1-212, C-terminal fused to a hexahistidine (6×His) tag (SEQ ID 3) and a synthetic Bad BH3-derived peptide of sequence Biotin-PEG2-PEG2-NLWAAQRYGRELRR-Nle-SDEFVDSFKK-amide (SEQ ID 4) served as protein receptor and tracer ligand respectively. The recombinant BCL-XL protein (expressed in E. coli) was purchased from BPS Bioscience (San Diego, Calif., USA). The Bad BH3-derived peptide can be obtained from e.g. Biosyntan (Berlin, Germany).
In the assay 11 different concentrations of each compound (0.1 nM, 0.33 nM, 1.1 nM, 3.8 nM, 13 nM, 44 nM, 0.15 μM, 0.51 μM, 1.7 μM, 5.9 μM and 20 μM) were typically measured as duplicates in the same microtiter plate. For that, 100-fold concentrated DMSO solutions were prepared by serial dilutions (1:3.4) of a 2 mM stock solution in a clear, 384-well microtiter plate (Greiner Bio-One, Frickenhausen, Germany). From there, 50 nl were transferred in a dark test plate (Greiner Bio-One, Frickenhausen, Germany). The assay was initiated by addition of 2 μl of a 2.5-fold concentrated His-BCL-XL solution (usually for a 1 nM end concentration in 5 μl reaction volume) in aqueous assay buffer [50 mM Tris/HCl pH 7, 100 mM sodium chloride (NaCl), 50 mM potassium fluoride (KF), 0.005% Tween-20, 2 mM DTT, 0.1% bovine gamma globulin (BGG)] to the compounds in the assay plate. This was followed by a 10-minute incubation step at 22° C. for pre-equilibration of the putative complex between His-BCL-XL and the compounds. After that, 3 μl of a 1.67-fold concentrated solution (in assay buffer) consisting of Bad BH3-derived peptide (1 nM end concentration) and TR-FRET detection reagents [1.67 nM anti-His-Eu cryptate and 1.67 nM streptavidin-XL665 (both from Cisbio Bioassays, Codolet, France)], were added.
The mixture was incubated in the dark for one hour at 22° C. and then overnight at 4° C. The formation of BCL-XL/Bad complexes was determined by measuring the resonance energy transfer of the anti-His- Eu-cryptate antibody to the streptavidin-XL665 present in the reaction. For that purpose, the fluorescence emission at 620 nm and 665 nm after excitation at 330-350 nm was measured in a TR-FRET measuring instrument, for instance a Rubystar or a Pherastar (both from BMG Lab Technologies, Offenburg, Germany) or a Viewlux (Perkin-Elmer). The ratio of the emission at 665 nm and at 622 nm was used as indicator of the amount of BCL-XL/Bad complexes present.
The resulting data (ratio) were normalized, taking 0% inhibition as the mean value of control measurements (usually 32 data points) where all reagents were included. In this case 50 nl DMSO were used instead of compounds. A 100% inhibition corresponded to the mean value of control measurements (usually 32 data points) where all reagents except BCL-XL were included. IC50 values were determined by regression analysis based on a 4 parameter equation (minimum, maximum, IC50, Hill; Y=Max+(Min−Max)/(1+(X/IC50)^HiII) using the Screener Software (Genedata).
(In general: TR-FRET usually uses a lanthanide donor and a delayed reading to cut background.)
Usually IC50 stands for the concentration that inhibits the measured activity by half. Low values mean higher potency, high ones lower potency. Regarding `Cc1cc(OCCCc2c(C(=O)O)n3c4c(c(F)ccc24)-c2c(nn(C)c2C)CN(C)S(=O)(=O)CCC3)cc(C)c1Cl` (racemic) [Example 28, (rac)-1-(3-(4-Chloro-3,5-dimethylphenoxy)propyl)-13-fluoro-8,11,12-trimethyl-5,6,9,11-tetrahydro-4H,8H-pyrazolo[3′,4′:4,5][1]thia[2,8]diazacycloundecino[6,7,8-hi]indole-2-carboxylic acid 7,7-dioxide], the IC50 is > 20 µM.
As to `CCc1c2c(nn1C)CN(C)S(=O)(=O)CCCn1c(C(=O)O)c(CCCOc3cccc4cc(F)ccc34)c3ccc(F)c-2c31` (racemic) [Example 7, (rac)-12-Ethyl-13-fluoro-1-(3-((6-fluoronaphthalen-1-yl)oxy)propyl)-8,11-dimethyl-5,6,9,11-tetrahydro-4H,8H-pyrazolo[3′,4′:4,5][1]thia[2,8]diazacycloundecino[6,7,8-hi]indole-2-carboxylic acid 7,7-dioxide], the IC50 was > 20 µM.
In the case of `COc1ccc(CN2Cc3nn(C)c(C)c3-c3c(Cl)ccc4c(CCCOc5cccc6cc(F)ccc56)c(C(=O)O)n(c34)CCCS2(=O)=O)c(OC)c1` (racemic) [Example 49, (rac)-4-chloro-14-(2,4-dimethoxybenzyl)-7-{3-[(6-fluoro-1-naphthyl)oxy]propyl}-2,3-dimethyl-11,12,14,15-tetrahydro-2H,10H-pyrazolo[3′,4′:4,5][1,2,8]thiadiazacycloundecino[6,7,8-hi]indole-8-carboxylic acid 13,13-dioxide] it was > 20 µM; in that of `CCc1c2c(nn1C)CN(C)S(=O)(=O)CCCn1c(C(=O)O)c(CCCOc3cccc4cc(F)ccc34)c3ccc(F)c-2c31` (single isomer, unassigned; enantiomer 2) [Example 9, (−)-3-Ethyl-4-fluoro-7-{3-[(6-fluoronaphthalen-1-yl)oxy]propyl}-2,14-dimethyl-13,13-dioxo-10,11,12,13,14,15-hexahydro-2H-13λ^6-pyrazolo[3′,4′:4,5][1,2,8]thiadiazacycloundecino-[6,7,8-hi]indole-8-carboxylic acid (Enantiomer 2)], > 20 µM.
In the case of `CCc1c2c(nn1C)CN(C)S(=O)(=O)CCCn1c(C(=O)O)c(CCCOc3cc(C)c(Cl)c(C)c3)c3ccc(Cl)c-2c31` [Example 22, (rac)-13-Chloro-1-(3-(4-chloro-3,5-dimethylphenoxy)propyl)-12-ethyl-8,11-dimethyl-4,5,6,8,9,11-hexahydropyrazolo[3′,4′:4,5][1,2,8]thiadiazacycloundecino[6,7,8-hi]indole-2-carboxylic acid 7,7-dioxide] it was > 20 µM; in that of `Cc1c2c(nn1C)CN(C)S(=O)(=O)CCCn1c(C(=O)O)c(CCCOc3cccc4ccccc34)c3ccc(Cl)c-2c31` (single isomer, unassigned; enantiomer 2) [Example 6, 4-Chloro-2,3,14-trimethyl-7-{3-[(naphthalen-1-yl)oxy]propyl}-13,13-dioxo-10,11,12,13,14,15-hexahydro-2H-13λ^6-pyrazolo[3′,4′:4,5][1,2,8]thiadiazacycloundecino[6,7,8-hi]indole-8-carboxylic acid-N-ethylethanamine salt (Enantiomer 2)], 18 µM; in that of `Cc1c2c(nn1C)CN(CCN1CCOCC1)S(=O)(=O)CCCn1c(C(=O)O)c(CCCOc3cccc4ccccc34)c3cccc-2c31` (racemic) [Example 1, (rac)-2,3-Dimethyl-14-[2-(morpholin-4-yl)ethyl]-7-{3-[(naphthalen-1-yl)oxy]propyl}-13,13-dioxo-10,11,12,13,14,15-hexahydro-2H-13λ^6-pyrazolo[3′,4′:4,5][1,2,8]thiadiazacycloundecino-[6,7,8-hi]indole-8-carboxylic acid], > 20 µM.
Take `CCc1c2c(nn1C)CN(C)S(=O)(=O)CCCn1c(C(=O)O)c(CCCOc3cccc4c3CCCC4)c3ccc(Cl)c-2c31` [Example 23, (rac)-13-Chloro-12-ethyl-8,11-dimethyl-1-(3-((5,6,7,8-tetrahydronaphthalen-1-yl)oxy)propyl)-4,5,6,8,9,11-hexahydropyrazolo[3′,4′:4,5][1,2,8]thiadiazacycloundecino[6,7,8-hi]indole-2-carboxylic acid 7,7-dioxide]: the IC50 is > 20 µM.
Take `Cc1c2c(nn1C)CN(C)S(=O)(=O)CCCn1c(C(=O)O)c(CCCOc3cccc4ccccc34)c3ccc(F)c-2c31` (racemic) [Example 26, (rac)-13-Fluoro-8,11,12-trimethyl-1-(3-(naphthalen-1-yloxy)propyl)-5,6,9,11-tetrahydro-4H,8H-pyrazolo[3′,4′:4,5][1]thia[2,8]diazacycloundecino[6,7,8-hi]indole-2-carboxylic acid 7,7-dioxide]: the IC50 is > 20 µM.
In the case of `CCc1c2c(nn1C)C(CCC1CCOCC1)N(C)S(=O)(=O)CCCn1c(C(=O)O)c(CCCOc3cccc4cc(F)ccc34)c3ccc(Cl)c-2c31` (racemic) [Example 59, (rac)-4-chloro-3-ethyl-7-{3-[(6-fluoro-1-naphthyl)oxy]propyl}-2,14-dimethyl-15-[2-(tetrahydro-2H-pyran-4-yl)ethyl]-11,12,14,15-tetrahydro-2H,10H-pyrazolo[3′,4′:4,5][1,2,8]thiadiazacycloundecino[6,7,8-hi]indole-8-carboxylic acid 13,13-dioxide (Racemate 2)] it was 16 µM; in that of `Cc1c2c(nn1C)CNS(=O)(=O)CCCn1c(C(=O)O)c(CCCOc3cccc4cc(F)ccc34)c3ccc(Cl)c-2c31` (single isomer, unassigned; enantiomer 2) [Example 52, 4-chloro-7-{3-[(6-fluoronaphthalen-1-yl)oxy]propyl}-2,3-dimethyl-13,13-dioxo-10,11,12,13,14,15-hexahydro-2H-13lambda^6-pyrazolo[3′,4′:4,5][1,2,8]thiadiazacycloundecino[6,7,8-hi]indole-8-carboxylic acid (Enantiomer 2)], 16 µM.
Turning to `CCc1c2c(nn1C)CN(C)S(=O)(=O)CCCn1c(C(=O)O)c(CCCOc3cccc4c3CCCC4)c3ccc(F)c-2c31` (racemic) [Example 34, (rac)-12-Ethyl-13-fluoro-8,11-dimethyl-1-(3-((5,6,7,8-tetrahydronaphthalen-1-yl)oxy)propyl)-5,6,9,11-tetrahydro-4H,8H-pyrazolo[3′,4′:4,5][1]thia[2,8]diazacycloundecino[6,7,8-hi]indole-2-carboxylic acid 7,7-dioxide], the IC50 was > 20 µM.
For the compound `Cc1c2c(nn1C)C(CCN1CCOCC1)N(C)S(=O)(=O)CCCn1c(C(=O)O)c(CCCOc3cccc4cc(F)ccc34)c3ccc(Cl)c-2c31` (racemic) [Example 65, (rac)-4-chloro-7-{3-[(6-fluoronaphthalen-1-yl)oxy]propyl}-2,3,14-trimethyl-15-(rac)-[2-(morpholin-4-yl)ethyl]-13,13-dioxo-10,11,12,13,14,15-hexahydro-2H-13lambda^6-pyrazolo[3′,4′:4,5][1,2,8]thiadiazacycloundecino[6,7,8-hi]indole-8-carboxylic acid (Mixture of Stereoisomers)], the IC50 was > 20 µM.
In the case of `Cc1c2c(nn1C)C(CCN1CCOCC1)N(C)S(=O)(=O)CCCn1c(C(=O)O)c(CCCOc3cccc4cc(F)ccc34)c3ccc(Cl)c-2c31` (racemic) [Example 48, (rac)-4-chloro-7-{3-[(6-fluoro-1-naphthyl)oxy]propyl}-2,3,14-trimethyl-15-(rac)-[2-(morpholin-4-yl)ethyl]-11,12,14,15-tetrahydro-2H,10H-pyrazolo[3′,4′:4,5][1,2,8]thiadiazacycloundecino[6,7,8-hi]indole-8-carboxylic acid 13,13-dioxide (Mixture of Stereoisomers)] it was > 20 µM.
